From patent US5424314A, “20,21-dinoreburnamenines” (Roussel-Uclaf, priority 1990, dated 1995) come the findings set out here.

In series [1] the test system is alpha 2 adrenergic receptors. The series is described as follows: Affinity for alpha 2 adrenergic receptors (H^3 rauwolscine displacement, cortex homogenate). The settings on record: H^3 rauwolscine 0.15 nM, 45 minutes at 25° C., pH 7.4; concentrations inhibiting 50% of specific fixation compared with phentolamine. The format is binding, male rate (rat) brain cortices. The protocol: 2 Affinity for Alpha 2 Adrenergic Receptors
10 cortices removed from the brains of male rate weighing on average 150 g were homogenized in 90 ml of 0.32M sucrose. After centrifuging the homogenized mixture at 1,000 g for 10 minutes at 0° C., the supernatant was centrifuged at 30,000 g for 10 minutes at 0° C.+4° C. The deposit was suspended in 240 ml of 50 mM Tris HCl pH 7.7 buffer and centrifuged at 30,000 g for 15 minutes at 0° C.+4° C. The new deposit was suspended in 480 ml of 50 mM NaKPO4 pH 7.4 buffer. Then 2 ml of suspension were incubated for 45 minutes at 25° C. in the presence of H^3 rauwolscine it a concentration of 0.15 nM:
i) on its own, ii) with increasing concentrations of the product under test or, iii) to determine the non-specific fixation, with non-radioactive phentolamine at a concentration of 10^-5 M.
The incubated suspensions were filtered on Whatman GF/C and the filters were washed three times with 5 ml of NaKPO4 pH 7.4 buffer at 0° C. The radioactivity of the filters was measured by liquid scintillation. The affinity of the product tested for the alpha 2 adrenergic receptors was determined relative to phentolamine as reference product.
CD=concentration of phentolamine inhibiting 50% of the specific fixation of H^3 rauwolscine;
CX=concentration of the product tested inhibiting 50% of the specific fixation of H^3 rauwolscine. […]

The subject of a further series is mouse. As to the kind of experiment: Acute toxicity: lethal dose LD0 after oral administration to a mouse. The format is in vivo. The protocol: The lethal doses LD0 of the different compounds tested were evaluated after oral administration to a mouse.
Series [2] has as its system mice of CD1, Charles River type. The series is described as follows: Hypobaric anoxia: survival time of mice subjected to a lethal hypoxic atmosphere. The settings on record: relative to vehicle control animals (70 to 80 seconds); male CD1 mice, depression of 620 mm Hg. The format is in vivo. The source says: The test consisted of measuring the survival time of mice subjected to a lethal hypoxic atmosphere in which male mice of CD1, Charles River type, weighing 20 to 25 grams, were placed individually in a 2 liter enclosure in which a depression of 620 mm Hg was brought about by means of a vacuum pump, according to the following kinetics: […]
______________________________________
The survival time was the time between the start of the depression (T0) and the last respiratory movement; it was on the order of 70 to 80 seconds on the control animals. The results are given as a percentage of the increase in the survival time relative to the control animals who received the vehicle.

Where a name gives a salt, the structure may show the parent alone.

In the case of `C=Cc1ccc2c3c4n(c2c1)C=CC1CCCN(CC3)C41` (racemic) [Example 1, [16 α(±)]-11-ethenyl-20,21-dinoreburnamenine maleate], in series [1], the “RBA (relative affinity, relative to phentolamine as reference product)” value is 31. In addition, the “LD0 (maximum dose which did not cause any mortality in 8 days)” value with mouse is listed as at least 400.
For the molecule `CC(=O)c1ccc2c3c4n(c2c1)C=CC1CCCN(CC3)C41` (racemic) [Example 4, [16α(±)]-11-acetyl-20,21-dinoreburnamenine acid maleate], the “% increase of survival time” value in series [2] was “+22%”. For the same molecule, in the series with mouse, the “LD0 (maximum dose which did not cause any mortality in 8 days)” value was 100.
The matching figures for `CC(O)c1ccc2c3c4n(c2c1)C=CC1CCCN(CC3)C41` (racemic) [Example 5]: “+21%” and 100.
With `NC(=O)c1ccc2c3c4n(c2c1)C=CC1CCCN(CC3)C41` (racemic) [Example 10, [16α(±)]-20,21-dinoreburnamenine-11-carboxamide], in series [2], the “% increase of survival time” value is recorded as “+22%”.
